Where two headings read alike, the source gives them in different places. Marks after values point to notes of the source that are not given here.
How the values were obtained:
[1] = Phase 1 clinical pharmacokinetics in plasma; assay type: in vivo, human; settings: for Tmax,ss, median [Min-Max] / AUC0-24,ss, Mean (CV%) / Cmax,ss, Mean (CV%): Steady State
RET = RET (Homo sapiens, UniProt P07949); assay: Tyrosine kinase inhibition; assay type: biochemical
EGFR = EGFR (Homo sapiens, UniProt P00533); assay: Tyrosine kinase inhibition; assay type: biochemical
EGFR, sequence (P00533 25-1210): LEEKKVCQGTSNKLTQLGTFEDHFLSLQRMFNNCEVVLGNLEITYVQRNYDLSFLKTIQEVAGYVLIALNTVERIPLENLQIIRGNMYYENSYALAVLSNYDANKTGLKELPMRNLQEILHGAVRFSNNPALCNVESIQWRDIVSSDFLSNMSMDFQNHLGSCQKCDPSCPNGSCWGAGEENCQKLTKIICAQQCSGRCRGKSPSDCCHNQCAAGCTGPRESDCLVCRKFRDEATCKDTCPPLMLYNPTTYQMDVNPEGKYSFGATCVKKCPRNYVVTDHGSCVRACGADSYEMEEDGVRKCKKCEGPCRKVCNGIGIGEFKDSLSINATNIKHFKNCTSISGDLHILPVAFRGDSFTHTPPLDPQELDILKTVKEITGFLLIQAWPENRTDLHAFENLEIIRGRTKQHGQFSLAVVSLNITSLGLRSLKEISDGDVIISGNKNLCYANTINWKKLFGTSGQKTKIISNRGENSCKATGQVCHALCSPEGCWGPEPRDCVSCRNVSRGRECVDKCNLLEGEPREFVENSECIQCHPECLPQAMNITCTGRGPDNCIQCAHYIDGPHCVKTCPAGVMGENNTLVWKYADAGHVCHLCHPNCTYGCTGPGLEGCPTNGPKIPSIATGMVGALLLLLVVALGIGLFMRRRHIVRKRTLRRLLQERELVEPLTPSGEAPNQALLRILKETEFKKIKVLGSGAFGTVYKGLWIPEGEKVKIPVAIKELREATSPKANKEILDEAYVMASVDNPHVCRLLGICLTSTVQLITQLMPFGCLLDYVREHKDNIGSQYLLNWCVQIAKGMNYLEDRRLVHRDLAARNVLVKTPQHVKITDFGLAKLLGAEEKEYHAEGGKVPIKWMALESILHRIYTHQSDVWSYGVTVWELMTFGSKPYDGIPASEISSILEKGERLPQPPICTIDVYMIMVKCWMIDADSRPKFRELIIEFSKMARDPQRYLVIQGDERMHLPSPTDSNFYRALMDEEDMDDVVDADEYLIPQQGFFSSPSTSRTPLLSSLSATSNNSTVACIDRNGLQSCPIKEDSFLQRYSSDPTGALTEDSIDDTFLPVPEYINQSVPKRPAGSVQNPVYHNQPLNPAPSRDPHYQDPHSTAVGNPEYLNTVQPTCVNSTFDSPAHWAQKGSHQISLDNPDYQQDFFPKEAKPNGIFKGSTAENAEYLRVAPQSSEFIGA

FGFR1-3 = assay type: biochemical
SRC = SRC (Homo sapiens, UniProt P12931); assay: Tyrosine kinase inhibition; assay type: biochemical
SRC, sequence (P12931 whole entry): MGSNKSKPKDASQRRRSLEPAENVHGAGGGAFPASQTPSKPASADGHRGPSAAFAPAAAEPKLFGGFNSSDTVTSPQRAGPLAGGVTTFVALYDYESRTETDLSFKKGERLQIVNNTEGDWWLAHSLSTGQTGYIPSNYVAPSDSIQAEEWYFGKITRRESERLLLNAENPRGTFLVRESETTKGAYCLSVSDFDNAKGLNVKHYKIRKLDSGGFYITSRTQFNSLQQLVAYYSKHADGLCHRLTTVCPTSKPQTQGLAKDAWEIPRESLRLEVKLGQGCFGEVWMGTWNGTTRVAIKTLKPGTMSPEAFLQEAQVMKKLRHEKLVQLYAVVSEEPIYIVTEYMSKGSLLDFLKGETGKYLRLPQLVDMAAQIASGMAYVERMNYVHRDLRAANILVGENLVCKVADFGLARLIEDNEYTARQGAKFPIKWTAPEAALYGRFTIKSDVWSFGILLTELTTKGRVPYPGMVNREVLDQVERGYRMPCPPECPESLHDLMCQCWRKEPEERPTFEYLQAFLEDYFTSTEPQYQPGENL

KYSE-150 cells = assay: Tumor cell proliferation in vitro; assay type: cell-based, human
[2] = system: human thyroid cancer TT tumors; assay: TT tumors in nude mice; assay type: in vivo; settings: for RTV ±SD / T/C / Terminal Tumor Volume: TT tumors
Excerpt: (§1) was higher than that of vandetanib .
as §1
Table S15. Efficacy of HA121-28 on human thyroid cancer TT tumors

Dog plasma kinetics = assay type: in vivo
Mouse micronucleus test = settings: in vivo mouse micronucleus test
FMS = FMS (Homo sapiens, UniProt P07333); assay: Tyrosine kinase inhibition; assay type: biochemical
FMS, sequence (P07333 20-972): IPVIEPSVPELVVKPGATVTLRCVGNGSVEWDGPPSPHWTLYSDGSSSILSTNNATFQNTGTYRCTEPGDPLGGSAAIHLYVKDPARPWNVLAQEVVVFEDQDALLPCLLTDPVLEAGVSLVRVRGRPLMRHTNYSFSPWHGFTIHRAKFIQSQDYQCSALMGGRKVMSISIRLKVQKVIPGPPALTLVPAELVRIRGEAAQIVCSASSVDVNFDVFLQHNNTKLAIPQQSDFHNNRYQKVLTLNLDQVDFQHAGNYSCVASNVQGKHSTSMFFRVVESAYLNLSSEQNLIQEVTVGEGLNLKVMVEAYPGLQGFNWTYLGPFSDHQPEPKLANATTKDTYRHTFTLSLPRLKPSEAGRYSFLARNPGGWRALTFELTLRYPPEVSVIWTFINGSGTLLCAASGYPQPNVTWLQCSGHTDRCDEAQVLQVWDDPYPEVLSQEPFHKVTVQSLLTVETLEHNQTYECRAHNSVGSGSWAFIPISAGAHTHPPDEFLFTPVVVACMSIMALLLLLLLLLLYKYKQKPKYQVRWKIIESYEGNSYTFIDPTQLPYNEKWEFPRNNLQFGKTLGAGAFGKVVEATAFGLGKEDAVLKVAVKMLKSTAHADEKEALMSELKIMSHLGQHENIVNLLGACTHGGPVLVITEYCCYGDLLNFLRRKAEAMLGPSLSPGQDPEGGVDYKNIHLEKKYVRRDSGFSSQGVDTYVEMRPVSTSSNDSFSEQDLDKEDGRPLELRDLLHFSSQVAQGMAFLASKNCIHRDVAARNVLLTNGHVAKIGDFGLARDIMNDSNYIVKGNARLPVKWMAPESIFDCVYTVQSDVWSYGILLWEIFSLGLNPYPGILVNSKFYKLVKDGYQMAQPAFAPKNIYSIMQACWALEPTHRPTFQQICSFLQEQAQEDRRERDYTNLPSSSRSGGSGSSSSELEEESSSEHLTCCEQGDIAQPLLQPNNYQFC

Metabolites in plasma = settings: dogs

RET, sequence (P07949 29-1114): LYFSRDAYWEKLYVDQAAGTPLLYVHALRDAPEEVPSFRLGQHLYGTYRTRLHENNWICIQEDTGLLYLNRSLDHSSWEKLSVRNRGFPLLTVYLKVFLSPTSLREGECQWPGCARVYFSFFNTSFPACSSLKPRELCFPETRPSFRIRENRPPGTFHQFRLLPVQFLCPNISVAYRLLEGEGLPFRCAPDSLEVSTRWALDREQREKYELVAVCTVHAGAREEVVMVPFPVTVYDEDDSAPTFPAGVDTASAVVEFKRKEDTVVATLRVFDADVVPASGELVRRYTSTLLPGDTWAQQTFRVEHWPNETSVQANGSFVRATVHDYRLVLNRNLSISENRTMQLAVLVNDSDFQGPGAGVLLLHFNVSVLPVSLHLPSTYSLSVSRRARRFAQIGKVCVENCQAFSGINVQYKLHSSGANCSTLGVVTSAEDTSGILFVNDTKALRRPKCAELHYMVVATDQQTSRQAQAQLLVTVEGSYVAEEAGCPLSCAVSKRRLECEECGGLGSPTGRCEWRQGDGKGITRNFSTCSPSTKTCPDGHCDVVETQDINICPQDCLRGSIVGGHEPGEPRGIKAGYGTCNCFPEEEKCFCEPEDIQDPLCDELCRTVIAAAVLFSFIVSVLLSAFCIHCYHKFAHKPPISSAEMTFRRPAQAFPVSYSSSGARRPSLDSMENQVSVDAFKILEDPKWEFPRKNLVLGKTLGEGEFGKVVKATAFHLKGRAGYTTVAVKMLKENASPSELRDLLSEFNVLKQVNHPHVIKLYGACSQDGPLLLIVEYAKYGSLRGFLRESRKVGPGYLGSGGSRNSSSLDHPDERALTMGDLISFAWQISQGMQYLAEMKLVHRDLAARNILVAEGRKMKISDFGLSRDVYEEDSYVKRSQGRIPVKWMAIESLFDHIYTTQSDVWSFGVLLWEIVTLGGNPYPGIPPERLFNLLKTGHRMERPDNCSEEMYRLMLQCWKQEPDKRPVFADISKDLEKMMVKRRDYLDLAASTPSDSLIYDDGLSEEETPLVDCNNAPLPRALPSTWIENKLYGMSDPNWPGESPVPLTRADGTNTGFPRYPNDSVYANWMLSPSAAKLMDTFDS

COc1cc2c(Nc3ccc(Br)cc3F)ncnc2cc1OCCCCN(C)C.Cl.Cl [HA121-28, N-(4-bromo-2-fluorophenyl)-7-(4-(dimethylamino)butoxy)-6-methoxy quinazolin-4-amine dihydrochloride]
Tmax,ss, median [Min-Max] ([1]; 450 mg (N=7)): 6 [4-8] h
AUC0-24,ss, Mean (CV%) ([1]; 600 mg (N=5)): 27965.4 (13872.8) h*ng/mL
Cmax,ss, Mean (CV%) ([1]; 600 mg (N=5)): 1453.0 (825.0) ng/mL
Tmax,ss, median [Min-Max] ([1]; 600 mg (N=5)): 4 [4-8] h
AUC0-24,ss, Mean (CV%) ([1]; 800 mg (N=3)): 23180.1 (3336.5) h*ng/mL
Cmax,ss, Mean (CV%) ([1]; 800 mg (N=3)): 1067.0 (216.4) ng/mL
Tmax,ss, median [Min-Max] ([1]; 800 mg (N=3)): 6 [4-8] h
time to steady state ([1]; multiple dosing): two
IC50 (RET): 8.72 nM
IC50 (EGFR): 46.6 nM
IC50 (FGFR1-3; FGFR1, read-out: IC50, FGFR1): 32.3 nM
IC50 (FGFR1-3; FGFR2, read-out: IC50, FGFR2): 20.4 nM
IC50 (FGFR1-3; FGFR3, read-out: IC50, FGFR3): 23.1 nM
IC50 (SRC): 65.8 nM
IC50 (KYSE-150 cells; KYSE-150, metabolite comparison, read-out: IC50): 1080 nM
IC50 (KYSE-150 cells; KYSE-150, read-out: IC50): 1080 ± 220 nM
IC50 (KYSE-150 cells; KYSE-150, read-out: IC50, proliferation): 1080 ± 220 nM
in vivo anti-tumor effect ([2]; 50 mg/kg): tumor shrinkage was observed
RTV ±SD ([2]; 25 mg/kg): 2.1±0.6
T/C ([2]; 25 mg/kg): 33.8%
Terminal Tumor Volume ([2]; 25 mg/kg): 307.4±69.5** mm^3
RTV ±SD ([2]; 50 mg/kg): 0.8±0.2
T/C ([2]; 50 mg/kg): 13.6%
Terminal Tumor Volume ([2]; 50 mg/kg): 131.9±66.5** mm^3
RTV ±SD ([2]; 75 mg/kg): 0.5±0.2
T/C ([2]; 75 mg/kg): 8.7%
Terminal Tumor Volume ([2]; 75 mg/kg): 86.9±40.0** mm^3
AUC0-72h (Dog plasma kinetics; 7 consecutive days (5 mg/kg)): 639 ± 69.0 ng·h/mL
AUC0-∞ (Dog plasma kinetics; 7 consecutive days (5 mg/kg)): 655 ± 72.2 ng·h/mL
CL (Dog plasma kinetics; 7 consecutive days (5 mg/kg)): 175 ± 21.5 mL/min/kg
Cmax (Dog plasma kinetics; 7 consecutive days (5 mg/kg)): 30.6 ± 3.25 ng/mL
MRT0-∞ (Dog plasma kinetics; 7 consecutive days (5 mg/kg)): 18.5 ± 1.89 h
Tmax (Dog plasma kinetics; 7 consecutive days (5 mg/kg)): 6.17 ± 2.48 h
Vd (Dog plasma kinetics; 7 consecutive days (5 mg/kg)): 214 ± 25.1 L/kg
t1/2 (Dog plasma kinetics; 7 consecutive days (5 mg/kg)): 14.2 ± 1.19 h
F (oral bioavailability) (Dog plasma kinetics; dog): 56.0%
AUC0-72h (Dog plasma kinetics; high dose (10 mg/kg)): 837 ± 207 ng·h/mL
AUC0-∞ (Dog plasma kinetics; high dose (10 mg/kg)): 848 ± 212 ng·h/mL
CL (Dog plasma kinetics; high dose (10 mg/kg)): 212 ± 75.2 mL/min/kg
Cmax (Dog plasma kinetics; high dose (10 mg/kg)): 58.9 ± 26.7 ng/mL
MRT0-72h (Dog plasma kinetics; high dose (10 mg/kg)): 14.8 ± 1.96 h
MRT0-∞ (Dog plasma kinetics; high dose (10 mg/kg)): 15.7 ± 2.45 h
Tmax (Dog plasma kinetics; high dose (10 mg/kg)): 2.17 ± 0.753 h
Vd (Dog plasma kinetics; high dose (10 mg/kg)): 197 ± 57.5 L/kg
t1/2 (Dog plasma kinetics; high dose (10 mg/kg)): 11.0 ± 1.51 h
AUC0-72h (Dog plasma kinetics; intravenous (2.5 mg/kg)): 489 ± 73.0 ng·h/mL
AUC0-∞ (Dog plasma kinetics; intravenous (2.5 mg/kg)): 493 ± 73.7 ng·h/mL
C5min (Dog plasma kinetics; intravenous (2.5 mg/kg)): 124 ± 17.6 ng/mL
CL (Dog plasma kinetics; intravenous (2.5 mg/kg)): 86.3 ± 14.8 mL/min/kg
MRT0-72h (Dog plasma kinetics; intravenous (2.5 mg/kg)): 10.9 ± 1.30 h
MRT0-∞ (Dog plasma kinetics; intravenous (2.5 mg/kg)): 11.5 ± 1.51 h
Vd (Dog plasma kinetics; intravenous (2.5 mg/kg)): 85.0 ± 27.0 L/kg
t1/2 (Dog plasma kinetics; intravenous (2.5 mg/kg)): 11.2 ± 1.70 h
AUC0-72h (Dog plasma kinetics; low dose (2.5 mg/kg)): 274 ± 68.2 ng·h/mL
AUC0-∞ (Dog plasma kinetics; low dose (2.5 mg/kg)): 279 ± 70.5 ng·h/mL
CL (Dog plasma kinetics; low dose (2.5 mg/kg)): 157 ± 37.3 mL/min/kg
Cmax (Dog plasma kinetics; low dose (2.5 mg/kg)): 13.4 ± 2.71 ng/mL
MRT0-72h (Dog plasma kinetics; low dose (2.5 mg/kg)): 16.3 ± 2.03 h
MRT0-∞ (Dog plasma kinetics; low dose (2.5 mg/kg)): 17.6 ± 2.45 h
Tmax (Dog plasma kinetics; low dose (2.5 mg/kg)): 6.50 ± 3.51 h
Vd (Dog plasma kinetics; low dose (2.5 mg/kg)): 160 ± 41.3 L/kg
t1/2 (Dog plasma kinetics; low dose (2.5 mg/kg)): 11.8 ± 1.00 h
AUC0-72h (Dog plasma kinetics; medium dose (5 mg/kg)): 393 ± 74.0 ng·h/mL
AUC0-∞ (Dog plasma kinetics; medium dose (5 mg/kg)): 398 ± 75.3 ng·h/mL
CL (Dog plasma kinetics; medium dose (5 mg/kg)): 217 ± 42.8 mL/min/kg
Cmax (Dog plasma kinetics; medium dose (5 mg/kg)): 24.8 ± 3.90 ng/mL
MRT0-72h (Dog plasma kinetics; medium dose (5 mg/kg)): 14.3 ± 1.36 h
MRT0-∞ (Dog plasma kinetics; medium dose (5 mg/kg)): 15.2 ± 1.57 h
Tmax (Dog plasma kinetics; medium dose (5 mg/kg)): 2.17 ± 0.753 h
Vd (Dog plasma kinetics; medium dose (5 mg/kg)): 217 ± 53.6 L/kg
t1/2 (Dog plasma kinetics; medium dose (5 mg/kg)): 11.5 ± 1.16 h
genetic toxicity (Mouse micronucleus test): negative
IC50 (FMS): 2910 nM
number of metabolites found in plasma (Metabolites in plasma): 7

Source: article PMC11868595, “Safety, pharmacokinetics and efficacy of HA121-28 in patients with advanced solid tumors and RET fusion-positive non-small-cell lung cancer: a multicenter, open-label, single-arm phase 1/2 trial” (Signal Transduction and Targeted Therapy, 2025)
